Measurements published in ChEMBL document CHEMBL1124530, “Dimethylsulfonium analogues of the muscarinic agent McN-A-343: [4-[[N-(3- or 4-halophenyl)carbamoyl]oxy]-2-butynyl] dimethylsulfonium perchlorates” (1989).
The source made the active and inactive calls.

Assays:
[1] = target: T1, Muscarinic acetylcholine receptor (Homo sapiens) (UniProt P20309+P08173+P11229+P08172+P08912); test: Tested in vitro for agonistic activity of compound towards muscarinic receptor in the concentration range of 1xe-6 to 1xe-4 M of guinea pig ileum; Inactive; type: functional, tissue-based; details: Cavia porcellus, target entry is the homologue from another species
Rattus norvegicus [2] = test: Ganglionic muscarinic activity was determined by the changes in mean arterial blood pressure of the pithed rat treated with to produce a half-maximal pressure response up i.v. administration; type: functional; details: iv
[3] = Equipotent molar ratio relative to carbachol for nicotininc activity in frog was determined; type: functional
[4] = target: T1, Muscarinic acetylcholine receptor (Homo sapiens); test: Tested in vitro for agonistic activity of compound towards muscarinic receptor in the concentration range of 1xe-6 to 1xe-4 M of guinea pig ileum; Responce varied in the range 17- 40%; type: functional, tissue-based; details: Cavia porcellus, filed as partial agonist, target entry is the homologue from another species
Rattus norvegicus [5] = test: Ganglionic muscarinic activity was determined by the changes in mean arterial blood pressure of the pithed rat treated with to produce a half-maximal pressure response up i.v. administration; Inactive when assayed a dose range of 1-10 umol/Kg; type: functional, organism-based

Row | SMILES | Max respose [1] | ED50 (Rattus norvegicus [2]) [µmol/kg] | Ratio [3] | Max respose [4] | ED50 (Rattus norvegicus [5])
1 | C[S+](C)CC#CCOC(=O)Nc1cccc(Br)c1.[O-][Cl+3]([O-])([O-])[O-] | inactive | 1.47 | – | – | –
2 | C[N+](C)(C)CC#CCOC(=O)Nc1cccc(Cl)c1 | – | 0.59 | – | – | –
3 | C[S+](C)CC#CCOC(=O)Nc1ccc(Cl)cc1.[O-][Cl+3]([O-])([O-])[O-] | inactive | 1.52 | – | – | –
4 | C[N+](C)(C)CC#CCOC(=O)Nc1ccc(Br)cc1 | – | 0.22 | 3.7 | Partial agonist | –
5 | C[S+](C)CC#CCOC(=O)Nc1cccc(Cl)c1.[O-][Cl+3]([O-])([O-])[O-] | inactive | 1.49 | – | – | –
6 | CN(C)CC#CCOC(=O)Nc1ccc(Br)cc1 | – | – | – | – | Inactive when assayed a dose range of 1-10 umol/Kg
7 | CN(C)CC#CCOC(=O)Nc1cccc(Br)c1 | – | – | – | – | Inactive when assayed a dose range of 1-10 umol/Kg
8 | C[S+](C)CC#CCOC(=O)Nc1ccc(Br)cc1.[O-][Cl+3]([O-])([O-])[O-] | inactive | 1.56 | – | – | –
9 | C[N+](C)(C)CC#CCOC(=O)Nc1cccc(Br)c1 | – | 0.7 | 4 | Partial agonist | –
